Converted amounts (≈) assume the structure as drawn. “And” between values parts separate entries of the source, which are not always exact repeats. Equal values may be shown once. Read-outs that look alike come from different tables or passages of the source.
Key:
Human Cathepsin L = Human Cathepsin L (Homo sapiens, UniProt P07711); test: biochemical; settings: 0.01 ng/uL Cathepsin L, pH 5.5, 2 mM DTT; read-out: IC50 HCathepsin L
SARSCoV2 = assay type: cell-based, SARS-CoV-2
Huh7 cells [1] = settings: read-out: CC50 Huh7; 72h incubation
[2] = not given; remark: listed apart in the source
MHV M^pro = MHV M^pro (UniProt P0C6X9); test: In-vitro Mpro inhibition assay, MHV enzyme; assay type: biochemical, mouse hepatitis virus (MHV)
MHV M^pro, sequence (P0C6X9 3334-3635): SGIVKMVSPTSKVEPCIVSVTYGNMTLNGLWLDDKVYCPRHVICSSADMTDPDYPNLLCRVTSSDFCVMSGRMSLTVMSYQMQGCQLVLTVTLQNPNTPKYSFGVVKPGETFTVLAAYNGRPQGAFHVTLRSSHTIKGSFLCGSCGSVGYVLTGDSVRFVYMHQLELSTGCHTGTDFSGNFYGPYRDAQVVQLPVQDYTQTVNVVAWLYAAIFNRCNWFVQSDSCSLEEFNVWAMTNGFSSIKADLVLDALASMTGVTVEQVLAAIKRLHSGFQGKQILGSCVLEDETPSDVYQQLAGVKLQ

[3] = not given; remark: listed apart in the source
Human Cathepsin B = Human Cathepsin B (Homo sapiens, UniProt P07858); test: Cathepsin B protease specificity assay (Z-LR-AMC substrate); assay type: biochemical
in vitro [4] = settings: mouse, plasma
in vitro [5] = settings: human, Caco-2
HCoV229E Mpro = HCoV229E Mpro (Human coronavirus 229E, UniProt P0C6X1); test: biochemical
HCoV229E Mpro, sequence (P0C6X1 2966-3267): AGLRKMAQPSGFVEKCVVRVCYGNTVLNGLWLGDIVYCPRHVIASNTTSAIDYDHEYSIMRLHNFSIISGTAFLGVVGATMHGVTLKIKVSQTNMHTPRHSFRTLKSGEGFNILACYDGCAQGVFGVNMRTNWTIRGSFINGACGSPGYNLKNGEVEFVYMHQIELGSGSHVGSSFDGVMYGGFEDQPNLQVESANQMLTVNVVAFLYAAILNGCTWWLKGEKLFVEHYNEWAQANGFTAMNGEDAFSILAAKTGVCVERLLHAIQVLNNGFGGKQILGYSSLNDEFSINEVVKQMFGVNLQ

in vitro [6] = settings: human
MERS Mpro = MERS Mpro (Middle East respiratory syndrome-related coronavirus, UniProt K9N7C7); test: biochemical
MERS Mpro, sequence (K9N7C7 3248-3553 limits assumed): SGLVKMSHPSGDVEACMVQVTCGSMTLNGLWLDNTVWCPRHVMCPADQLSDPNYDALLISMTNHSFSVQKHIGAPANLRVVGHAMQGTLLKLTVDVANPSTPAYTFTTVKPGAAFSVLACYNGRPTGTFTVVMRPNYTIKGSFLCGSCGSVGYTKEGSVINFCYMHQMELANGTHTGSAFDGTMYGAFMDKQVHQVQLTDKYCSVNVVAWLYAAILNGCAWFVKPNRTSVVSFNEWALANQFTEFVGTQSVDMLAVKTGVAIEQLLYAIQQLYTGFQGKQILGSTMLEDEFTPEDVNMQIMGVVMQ

physchem = settings: aqueous buffer, kinetic from dmso stock
SARS-CoV-2 mature Mpro = SARS-CoV-2 mature Mpro (Severe acute respiratory syndrome coronavirus 2, UniProt P0DTD1); assay type: binding; settings: 3 μM Mpro, 30 μM compound
in vitro [7] = settings: human; remark: listed apart in the source
mature SARSCoV2 M^pro = mature SARSCoV2 M^pro (Severe acute respiratory syndrome coronavirus 2, UniProt P0DTD1); test: biochemical; parameters: species or system SARS-CoV-2
in vitro [8] = settings: human, Caco-2; remark: listed apart in the source
Huh7 cells [9] = settings: 100 μM, Huh-7 cells
in vitro [10] = settings: human plasma
[11] = after a maximal 750 mg dose; cited from earlier work
SARS-CoV-2 M^pro-His6 = SARS-CoV-2 M^pro-His6 (Severe acute respiratory syndrome coronavirus 2, UniProt P0DTD1); test: biochemical; settings: for inhibition at 150 µM: read-out: inhibition of enzyme activity
[12] = after a nasal dose; cited from earlier work
[13] = 100 nM MHV Mpro, read-out: IC50 MHV Mpro
[14] = 0.05 ng/uL Cathepsin B, pH 5.5, 2 mM DTT, read-out: IC50 HCathepsin B
[15] = 20 nM SARSCoV2 Mpro, 30 min incubation, read-out: IC50 SARSCov2 Mpro
[16] = Example 6, read-out: IC50 against SARS-CoV-2 Mpro

Human Cathepsin L, sequence (P07711 114-333): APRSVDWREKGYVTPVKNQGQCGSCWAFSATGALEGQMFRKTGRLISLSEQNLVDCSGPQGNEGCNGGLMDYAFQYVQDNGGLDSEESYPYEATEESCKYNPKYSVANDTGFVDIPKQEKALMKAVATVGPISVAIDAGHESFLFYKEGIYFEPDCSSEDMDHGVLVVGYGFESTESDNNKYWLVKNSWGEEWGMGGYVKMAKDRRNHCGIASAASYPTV

Row | Compound | IC50 (Human Cathepsin L) [µM] | IC50 (MHV M^pro; [13]) [µM] | Plasma Stability Human T1/2 [3] | IC50 (Human Cathepsin B; [14]) [µM] | half-life (in vitro [4]) [h] | Papp A→B (in vitro [5]) [nm/s] | Papp B→A (in vitro [5]) [nm/s] | IC50 (HCoV229E Mpro) [µM] | CC50 (in vitro [6]) [µM] | IC50 (MERS Mpro) [µM] | solubility kinetic (physchem) [µM] | ΔTm Mpro (SARS-CoV-2 mature Mpro) [°C] | CC50 (in vitro [7]) [µM] | IC50 (mature SARSCoV2 M^pro; [15]) [µM] | also measured
1 | CC(C)C[C@H](NC(=O)OCc1ccccc1)C(=O)N[C@@H](CC1CCNC1=O)C(O)S(=O)(=O)[O-].[Na+] (stereo partly drawn) [GC-376, reference compound] | 0.001 | 0.05 | 1.58 h | 0.001 |  |  |  |  |  |  |  |  |  |  | Kinetic Solubility in PBS: 71 µM; EC50 (SARSCoV2; read-out: EC50): 0.0001 µM; CC50 (Huh7 cells [1]): > 100 µM; Caco-2 Permeability Papp A-B (Caco-2; A-B): <0.3 10-6 cm/s; Caco-2 Permeability Papp B-A (Caco-2): 5 10-6 cm/s; Plasma Stability Mouse T1/2 [2]: 3.87 h; IC50 (MHV M^pro; read-out: IC50, 100 nM mature MHV M^pro at 30° C., 100 nM enzyme, 30° C.): 0.067 µM
2 | CC1(C)[C@@H]2[C@@H](C(=O)N[C@@H](C[C@@H]3CCNC3=O)C(=O)C(N)=O)N(C(=O)CCc3ccccc3)C[C@@H]21 [ML102] | 0.8 | 0.98 | ∞ | 2.2 | 0.3 | < 2 | 7 | 0.29 | > 100 | 1.2 | 83 (≈ 38.9 µg/mL) | 15.5 | > 100 | 0.09 | 
3 | CNC(=O)C(=O)[C@H](C[C@@H]1CCNC1=O)NC(=O)[C@@H]1[C@@H]2[C@H](CN1C(=O)CCc1ccccc1)C2(C)C [ML102m] |  |  |  |  | 0.75 | 4 | 18 | 0.72 | > 100 | 1.1 | > 100 | 15.2 | > 100 | 0.12 | 
4 | CC1(C)[C@@H]2[C@@H](C(=O)NC(C[C@@H]3CCNC3=O)C(=O)C(N)=O)N(C(=O)CNc3c(F)cc(F)cc3F)C[C@@H]21 (stereo partly drawn) [ML104] | 11 | 0.25 | ∞ | 17 | 1.67 | < 2 | 9 | 0.44 | > 100 | 0.19 | 86 (≈ 45 µg/mL) | 17.5 | > 100 |  | CC50 (in vitro [8]): > 100 µM; IC50 (mature SARSCoV2 M^pro; [16]): < 0.05 µM and 0.03 µM
5 | CNC(=O)C(=O)[C@H](C[C@@H]1CCNC1=O)NC(=O)[C@@H]1[C@@H]2[C@H](CN1C(=O)CNc1c(F)cc(F)cc1F)C2(C)C [ML104m] |  |  |  |  | 1.35 | 5 | 25 | 0.23 | > 100 | 0.29 | 98 (≈ 52.7 µg/mL) | 17.1 | > 100 |  | 
6 | COc1cccc2[nH]c(C(=O)N3C[C@H]4[C@@H]([C@H]3C(=O)N[C@@H](C[C@@H]3CCNC3=O)C(=O)C(N)=O)C4(C)C)cc12 [ML105] | 0.3 | 0.06 | ∞ | 0.7 | 0.333 | < 2 | 3 | 0.01 | > 100 | 0.34 | 80 (≈ 40.8 µg/mL) | 18.6 | > 100 | 0.02 | CC50 (in vitro [8]): > 100 µM; IC50 (mature SARSCoV2 M^pro; [16]): < 0.05 µM
7 | CC(C)(C)NC(=O)N[C@H](C(=O)N1C[C@H]2[C@@H]([C@H]1C(=O)N[C@@H](C[C@@H]1CCNC1=O)C(=O)C(N)=O)C2(C)C)C(C)(C)C [ML1000] | 3.2 |  | 1.82 h | 5.9 |  |  |  | 0.13 |  |  |  |  |  |  | Kinetic Solubility in PBS: 87 µM; EC50 (SARSCoV2; read-out: EC50: 50% effective antiviral concentration): 0.1 µM; cytotoxicity at the highest dose tested (Huh7 cells [9]): no cytotoxicity; IC50 (MERS Mpro; read-out: IC50 MERS Mpro): 0.53 µM; CC50 (Huh7 cells [1]): > 100 µM; Caco-2 Permeability Papp B-A (Caco-2): 0.4 10-6 cm/s; Caco-2 Permeability Papp A-B (Caco-2; Caco-2): <0.2 10-6 cm/s; Plasma Stability Mouse T1/2 [2]: 0.383 h
8 | CC(C)(C)CC(=O)N[C@H](C(=O)N1C[C@H]2[C@@H]([C@H]1C(=O)NC(C[C@@H]1CCNC1=O)C(=O)C(N)=O)C2(C)C)C(C)(C)C (stereo partly drawn) [ML1001] | 33 | 0.07 |  | 42 | 0.433 | < 2 | 5 | 0.5 | > 100 | 0.26 | 66 (≈ 36.1 µg/mL) | 21.6 | > 100 |  | CC50 (in vitro [8]): > 100 µM; half-life (in vitro [10]): 5.5 h
9 | CC(C)(C)[C@H](NC(=O)C12CC(C1)C2)C(=O)N1C[C@H]2[C@@H]([C@H]1C(=O)N[C@@H](C[C@@H]1CCNC1=O)C(=O)C(N)=O)C2(C)C [ML1002] |  |  |  |  | 0.35 | < 2 | < 2 | 0.26 | > 100 | 0.19 | > 100 | 21.6 | > 100 | 0.02 | IC50 (mature SARSCoV2 M^pro; [16]): < 0.05 µM
10 | CNC(=O)C(=O)[C@H](C[C@@H]1CCNC1=O)NC(=O)[C@@H]1[C@@H]2[C@H](CN1C(=O)[C@@H](NC(=O)C13CC(C1)C3)C(C)(C)C)C2(C)C [ML1002m] |  |  |  |  | 2.83 | 4 | 7 | 0.4 | > 100 | 0.25 | > 100 | 21 | > 100 | 0.02 | 
11 | CCC[C@H](NC(=O)[C@@H]1[C@H]2CCC[C@H]2CN1C(=O)[C@@H](NC(=O)[C@@H](NC(=O)c1cnccn1)C1CCCCC1)C(C)(C)C)C(=O)C(=O)NC1CC1 [Telaprevir, telaprevir, reference compound] | 25 |  |  |  |  |  |  |  | 10 to 100 |  |  |  | 10 to 100 |  | peak plasma concentration [11]: 5 µM; IC50 (Human Cathepsin B): 36 µM
12 | CCN(CC)C(=S)SSC(=S)N(CC)CC [disulfiram] |  |  |  |  |  |  |  |  |  |  |  |  |  |  | inhibition at 150 µM (SARS-CoV-2 M^pro-His6): < 50%
13 | O=c1c2ccccc2[se]n1-c1ccccc1 [ebselen] |  |  |  |  |  |  |  |  |  |  |  |  |  |  | inhibition at 150 µM (SARS-CoV-2 M^pro-His6): < 50%
14 | CC(C)c1nc(CN(C)C(=O)N[C@H](C(=O)N[C@@H](Cc2ccccc2)C[C@H](O)[C@H](Cc2ccccc2)NC(=O)OCc2cncs2)C(C)C)cs1 [ritonavir] |  |  |  |  |  |  |  |  |  |  |  |  |  |  | inhibition at 150 µM (SARS-CoV-2 M^pro-His6; 150 μM drug, 2 mM DTT, 100 nM M^pro-His6): < 50%; inhibition of M^pro activity (SARS-CoV-2 M^pro-His6; 150 μM, absence of DTT (air-equilibrated buffer)): no inhibitory effect
15 | CCOC(=O)/C=C/[C@H](C[C@@H]1CCNC1=O)NC(=O)[C@@H](CC(=O)[C@@H](NC(=O)c1cc(C)on1)C(C)C)Cc1ccc(F)cc1 [rupintrivir] |  |  |  |  |  |  |  |  |  |  |  |  |  |  | concentration on nasal surfaces [12]: 5 µM

Source: patent US20230192660A1 (priority 2020, published 2023)
